The record followed here is US11498903B2 (BRISTOL-MYERS SQUIBB COMPANY, priority 2017, dated 2022).

Structures are written as SMILES. Where two headings read alike, the source gives them in different places.

The test concerns the target T1, human APJ receptor (Homo sapiens, UniProt P35414).
T1 construct: expressed in transfected cells
T1 sequence (P35414 1-380): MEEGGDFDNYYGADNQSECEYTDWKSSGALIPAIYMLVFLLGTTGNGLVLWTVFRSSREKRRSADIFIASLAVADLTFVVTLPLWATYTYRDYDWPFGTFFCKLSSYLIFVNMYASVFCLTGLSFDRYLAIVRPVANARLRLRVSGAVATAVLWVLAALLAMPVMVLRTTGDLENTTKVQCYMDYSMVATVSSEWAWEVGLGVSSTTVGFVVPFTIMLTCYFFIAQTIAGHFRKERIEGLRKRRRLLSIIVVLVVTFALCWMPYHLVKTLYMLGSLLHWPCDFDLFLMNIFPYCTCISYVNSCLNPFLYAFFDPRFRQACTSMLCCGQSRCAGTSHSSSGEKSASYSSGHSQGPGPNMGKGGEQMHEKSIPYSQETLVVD
The test is described as follows: Intracellular cAMP accumulation assay (APJ hcAMP, HTRF). In kind it is cell-based. Particulars: HEK293 cells stably expressing human APJ receptor. The procedure, abridged:
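Inhibition of 2 μM forskolin-driven cAMP ([…] present) measured by HTRF in 5,000 HEK293 cells/well stably expressing human APJ, 30 min, room temperature. EC50 came from a variable-slope sigmoidal fit; Ymax was relative to (Pyr1)apelin-13 set at 100%.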
For orientation: Changes in cAMP serve as a functional read-out for many G protein-coupled receptors.

Where [1] appears, read: Table 1, inhibition of forskolin-mediated cAMP production, read-out: APJ hcAMP EC50.
The mark [2] stands for this setting: Table 2, read-out: APJ cAMP Human EC50.

What is called EC50 is the concentration that produces a half-maximal response. Consider `O=C(N[C@H](CN1CCOCC1)c1ccccc1)c1ccc(-c2cc(Cl)ccc2-c2nc3ccccc3[nH]2)c(C(=O)O)c1` [Example 5, (S)-2′-(1H-benzo[d]imidazol-2-yl)-5′-chloro-4-((2-morpholino-1-phenylethyl)carbamoyl)-[1,1′-biphenyl]-2-carboxylic acid], for which the concentration giving a half-maximal response (EC50) fell in the range of 10 to 100 nM under setting [1] and 10 to 100 nM under setting [2].

`CCC[C@@H](NC(=O)c1ccc(-c2cc(Cl)ccc2-c2nc3ccccc3[nH]2)c(C(=O)NC#N)c1)c1ccccc1` [Example 6, (R)-2′-(1H-benzo[d]imidazol-2-yl)-5′-chloro-N2-cyano-N4-(1-phenylbutyl)-[1,1′-biphenyl]-2,4-dicarboxamide]: the EC50 reads like this: under setting [1], 101 to 500 nM; under setting [2], 101 to 500 nM.

For the compound `CCC[C@@H](NC(=O)c1ccc(-c2cc(Cl)ccc2-c2nc3ccccc3[nH]2)c(CO)c1)c1ccccc1` [Example 7, (R)-2′-(1H-benzo[d]imidazol-2-yl)-5′-chloro-2-(hydroxymethyl)-N-(1-phenylbutyl)-[1,1′-biphenyl]-4-carboxamide], the concentration for a half-maximal effect (EC50) reads like this: under setting [1], 10 to 100 nM; under setting [2], 10 to 100 nM.

Turning to `CCC[C@@H](NC(=O)c1ccc(-c2cc(Cl)ccc2-c2nc3cc(OC)ccc3[nH]2)c(-c2nc(=O)o[nH]2)c1)c1ccccc1` [Example 8, (R)-5′-chloro-2′-(5-methoxy-1H-benzo[d]imidazol-2-yl)-2-(5-oxo-2,5-dihydro-1,2,4-oxadiazol-3-yl)-N-(1-phenylbutyl)-[1,1′-biphenyl]-4-carboxamide], the EC50 lay within 10 to 100 nM under setting [1] and 10 to 100 nM under setting [2].

Consider `CCC[C@@H](NC(=O)c1ccc(-c2cc(Cl)ccc2-c2nc3ccccc3[nH]2)c(-c2n[nH]c(=O)o2)c1)c1ccccc1` [Example 9], for which the EC50 by setting is: under setting [1], 10 to 100 nM; under setting [2], 10 to 100 nM.

As for `CCC[C@@H](NC(=O)c1ccc(-c2cc(Cl)ccc2-c2nc3cc(OC)ccc3[nH]2)c(-c2nc(=S)o[nH]2)c1)c1ccccc1` [Example 10, (R)-5′-chloro-2′-(5-methoxy-1H-benzo[d]imidazol-2-yl)-N-(1-phenylbutyl)-2-(5-thioxo-2,5-dihydro-1,2,4-oxadiazol-3-yl)-[1,1′-biphenyl]-4-carboxamide], the EC50 was 101 to 500 nM under setting [1] and 101 to 500 nM under setting [2].

Turning to `CCC[C@@H](NC(=O)c1cc(C(=O)O)c(-c2cc(Cl)ccc2-c2nc3ccccc3[nH]2)cc1C)c1ccccc1` [Example 11, (R)-2′-(1H-benzo[d]imidazol-2-yl)-5′-chloro-5-methyl-4-((1-phenylbutyl)carbamoyl)-[1,1′-biphenyl]-2-carboxylic acid], the EC50 is less than 10 nM under setting [1] and less than 10 nM under setting [2].

As to `COC[C@@H](NC(=O)c1ccc(-c2cc(Cl)ccc2-c2nc3cc(OC)ccc3[nH]2)c(C(=O)O)c1)c1ccccc1` [Example 12, 5′-chloro-4-{[(1S)-2-methoxy-1-phenylethyl]carbamoyl}-2′-(5-methoxy-1H-1,3-benzodiazol-2-yl)-[1,1′ biphenyl]-2-carboxylic acid], the EC50 runs as follows: under setting [1], less than 10 nM; under setting [2], less than 10 nM.

`CCC[C@@H](NC(=O)c1ccc(-c2cc(Cl)ccc2-c2nc3cc(Br)ccc3[nH]2)c(C(=O)O)c1)c1ccccc1` [Example 13, 2′-(5-bromo-1H-1,3-benzodiazol-2-yl)-5′-chloro-4-{[(1R)-1-phenylbutyl]carbamoyl}-[1,1′-biphenyl]-2-carboxylic acid]: the EC50 was less than 10 nM under setting [1] and less than 10 nM under setting [2].

`CCC[C@@H](NC(=O)c1ccc(-c2cc(Cl)ccc2-c2nc3cc(C)ccc3[nH]2)c(C(=O)O)c1)c1ccccc1` [Example 14, 5′-chloro-2′-(5-methyl-1H-1,3-benzodiazol-2-yl)-4-{[(1R)-1-phenylbutyl]carbamoyl}-[1,1′-biphenyl]-2-carboxylic acid]: the concentration for a half-maximal effect (EC50) is less than 10 nM under setting [1] and less than 10 nM under setting [2].
